pIC50: −log10 of the molar value.

Data set [1] deals with T1, recombinant His-tag Y220C p53 DNA binding domain (Homo sapiens, UniProt P04637, Y220C).
T1 construct: Y220C p53 DBD protein (amino acids #94-312); made in house
Nature of the data set: TR-FRET DNA binding assay (SC150). In kind it is biochemical. From the text: At the outset of our hit generation campaign, several small molecules targeting the p53 Y220C mutant protein were identified. Two notable examples, supported by crystallographic data, were the compounds from the carbazole series[6] (PhiKan83) and the iodophenol series[7] (PK1596) (Figure 1). To assess the in vitro potency of the p53 Y220C reactivators, a time-resolved fluorescence resonance energy transfer (FRET) assay was developed. In this assay, recombinant His-tag Y220C p53 DNA binding domain binds to biotin-labeled consensus DNA, and the FRET signal is measured between the allophycocyanin-conjugated anti-His-tag antibody and europium-conjugated streptavidin. The […] concentration required to increase DNA binding by 1.5-fold (SC150) could then be determined. The carbazole compound (PhiKan83) enhanced DNA binding with an SC150 of 37.2 μM. […]
Time-Resolved Fluorescence Resonance Energy Transfer (TR-FRET) Assay
DNA binding activity was measured by the TR-FRET assay. In this assay, the recombinant His6-tag Y220C p53 DNA binding domain (DBD) protein binds to biotin labeled consensus DNA. The binding of recombinant His6-tag Y220C p53 DBD protein and biotin-labeled consensus DNA is detected by the fluorescence resonance energy transfer (FRET) between allophycocyanin (APC) conjugated anti-His6 tag antibody and Europium-(Eu) conjugated Streptavidin. Test compounds, at 2 mM stock in DMSO, were diluted t hr e e-f ol d in serial dilutions in DMSO and 1.2 µL per well were added into 384-well polypropylene black plates (NUNC). Subsequently, 30 µL per well of 181 nM recombinant His6-tag Y220C p53 DBD protein (amino acids #94-312) and 9.1 nM of APC conjugated anti-His6 tag antibody (Columbia Biosciences) in ice-cold Assay Buffer 1 (50 mM Tris-HCl, pH 7.4, 75 mM KCl, 0.75 mM DTT and 0.2 mg/mL bovine serum albumin [BSA]) was added. As a background control, 30 µL of Assay Buffer 1 containing 9.1 nM of APC anti-His6 antibody (no Y220C protein) was also added into a second set of serial diluted compound plates. The samples were centrifuged at 1,200 rpm (Eppendorf 5810R plate centrifuge) for 1 minute and incubated at room temperature (20 °C) for 15 min. The samples were then incubated at 27 °C in a water bath for 48 min. Afterwards, 5 µL per well of 145 nM biotin labeled oligonucleotide from a consensus DNA p53 response element (a DNA duplex with 5’ to 3’sequence of […]
and biotin attached to the 3’ end of the complementary DNA) and 8.8 nM Eu-conjugated streptavidin (Columbia Biosciences) in Assay Buffer 2 (50 mM Tris-HCl, pH 7.4, 75 mM KCl and 0.2 mg/mL BSA) were added. The samples were centrifuged at 1,200 rpm for 1 min and incubated at room temperature (20 °C) for 20 min. Assay signals were monitored by reading excitation at 340 nm, and emission fluorescence at 615 and 665 nm, on an Envision reader (Perkin El mer). Normalized TR -FRET assay signal (Rn) was calculated by the formula:
Rn = [(A − B a − C × (D − Bd))/(D − Bd)] × (Dc − B d),
C = (Ac − B a)/(Dc − B d), […]
For orientation: Time-resolved FRET reads energy transfer from a long-lived donor to a nearby acceptor.

The test system of data set [2] is NUGC-3, gastric cancer cell line with a TP53 Y220C mutation. Nature of the data set: MTT cell proliferation assay. In kind it is cell-based, human. Conditions: for pIC50: Homo sapiens, NUGC-3, 120 h, NUGC-3 cells, five days incubation. The procedure:
We also evaluated the effects of these compounds on the growth and viability of four cancer cell lines in vitro. Two of the cell lines (NUGC-3, gastric cancer cell line with a TP53 Y220C mutation and T3M-4, pancreatic carcinoma cell line) have the TP53 Y220C mutation leading to the p53 Y220C mutant protein; SJSA-1 is a p53 WT cell line, and NUGC-3-KO is an isogenic p53 knockout cell line.[11] After incubating the cells with the compounds for five days, cell viability was measured using the 3-(4,5-dimethylthiazol-2-yl)-2,5-diphenyltetrazolium bromide (MTT) assay.
C = (Ac − B a)/(Dc − B d),
Prism (GraphPad) or XLfit software (IDBS).
Cells were seeded at an appropriate
Compounds were tested at eight concentrations with 2-fold serial dilutions. […]
with a reference wavelength of 650 nm. […]
untreated cells (control). […]

Data set [3] in a line: Pharmacokinetic study in mice. As to conditions: Table 3, PO, 50 mg/kg.
Method: Pharmacokinetic parameters were evaluated in female CD-1 mice. Animals received an oral gavage dose of 50 mg/kg of the test article. The test article was formulated in a solution containing 2% hydroxypropyl
cellulose and 0.5% Tween 80 in water. Blood samples were collected at 0.5, 1, 2, 4, 7, and 24 h post dose.
Blood samples were processed into plasma, and the concentrations of the test article were determined by
LC-MS/MS. P harmacokinetic parameters were calculated using the Phoenix WinNonlin 6.3 program,
employing a non- compartmental model 200.
[4] abbreviates: Figure 1, enhancement of DNA binding.
The mark [5] stands for this setting: Table 3, concentration required to increase DNA binding by 1.5-fold.
Setting [6] is: Table 2, concentration required to increase DNA binding by 1.5-fold.
The mark [7] stands for this setting: Table 1, concentration required to increase DNA binding by 1.5-fold.

In the case of `CCN(CC)C1CCN(Cc2cc(C#CCNc3ccccc3)cc(I)c2O)CC1` [PK1596, reference compound], in data set [1] (setting [4]), the SC150 was determined as 1.6 µM. In general, pIC50 refers to the IC50 on a negative log10 scale, so that one unit is a factor of ten. Low readings indicate a large IC50, high ones a small IC50. Take `COc1cc(S(N)(=O)=O)ccc1NCC#Cc1cc2c(N[C@@H]3CCN(C)C[C@@H]3F)cccc2n1CC(F)(F)F` [Compound 23, 4-((3-(4-(((3S,4R)-3-fluoro-1-methylpiperidin-4-yl)amino)-1-(2,2,2-trifluoroethyl)-1H-indol-2-yl)prop-2-yn-1-yl)amino)-3-methoxybenzenesulfonamide]: the SC150 in data set [1] (setting [5]) was found to be 0.009 µM. In data set [2] (Table 3), this molecule had a pIC50 of 6.58. Also, in data set [3], the “Mouse PK Exposure AUC0-last” value is 8066 ng·h/mL and the “Mouse PK Exposure Cmax” value was 1310 ng/mL. For the molecule `COc1cc(C(=O)N2CCN(C)CC2)ccc1NCC#Cc1cc2c(N[C@@H]3CCN(C)C[C@@H]3F)cccc2n1CC(F)(F)F` [Compound 30, [4-[3-[4-[[(3S,4R)-3-fluoro-1-methyl-4-piperidyl]amino]-1-(2,2,2-trifluoroethyl)indol-2-yl]prop-2-ynyl-amino]-3-methoxy-phenyl]-(4-methylpiperazin-1-yl)methanone], the SC150 in data set [1] (setting [5]) was 0.009 µM. Moreover, in data set [2] (Table 3), the pIC50 was 6.10.

For `COc1cc(S(C)(=O)=O)ccc1NCC#Cc1cc2c(N[C@@H]3CCN(C)C[C@@H]3F)cccc2n1CC(F)(F)F` (racemic) [Compound 20, Rac-N-[(3S,4R)-3-fluoro-1-methyl-4-piperidyl]-2-[3-(2-methoxy-4-methylsulfonyl-anilino)prop-1-ynyl]-1-(2,2,2-trifluoroethyl)indol-4-amine], the SC150 in data set [1] (setting [6]) came out at 0.009 µM. In addition, in data set [2] (Table 2), the pIC50 was 6.15. In data set [2] (among the two pairs of stereoisomers from fluorine substitution of compound 13), the “fold higher potency in the MTT assay” value is listed as “over 3 fold”.

As to `CCn1c(C#CCNc2ccc(C(C)(C)C)nc2)cc2cc(CNC)ccc21` [Compound 5, 6-(tert-butyl)-3-(3-{1-ethyl-5-[(methylamino)methyl]-2-indolyl}-2-propynylamino)pyridine], in data set [1] (setting [7]), the SC150 was determined as 6.4 µM. Still for that read-out and setting: the value for `Cc1cc(S(C)(=O)=O)ccc1NCC#Cc1cc2c(NC3CCN(C)CC3)cccc2n1CC(F)(F)F` [Compound 12, 2-[3-(2-methyl-4-methylsulfonyl-anilino)prop-1-ynyl]-N-(1-methyl-4-piperidyl)-1-(2,2,2-trifluoroethyl)indol-4-amine] was 0.030 µM. On the same count and under the same terms, the result for `CC(C)(C#N)c1ccc(NCC#Cc2cc3c(NC4CCOCC4)cccc3n2CC(F)(F)F)cn1` [Compound 9, 2-methyl-2-(5-((3-(4-((tetrahydro-2H-pyran-4-yl)amino)-1-(2,2,2-trifluoroethyl)-1H-indol-2-yl)prop-2-yn-1-yl)amino)pyridin-2-yl)propanenitrile] reads 0.105 µM; that for `CCn1c(C#CCNc2ccc(C(C)(C)C#N)nc2)cc2cc(CNC3CCOCC3)ccc21` [Compound 6, 2-(5-((3-(1-ethyl-5-(((tetrahydro-2H-pyran-4-yl)amino)methyl)-1H-indol-2-yl)prop-2-yn-1-yl)amino)pyridin-2-yl)-2-methylpropanenitrile], 1.3 µM; that for `CN1CCC(Nc2cccc3c2cc(C#CCNc2ccc(C(C)(C)C#N)nc2)n3CC(F)(F)F)CC1` [Compound 10, 2-methyl-2-(5-((3-(4-((1-methylpiperidin-4-yl)amino)-1-(2,2,2-trifluoroethyl)-1H-indol-2-yl)prop-2-yn-1-yl)amino)pyridin-2-yl)propanenitrile], 0.054 µM.

In the case of `CCn1c(C#CCNc2ccccc2)cc2cc(C(=O)NC3CCN(C)CC3)ccc21` [Compound 2, 2-(3-anilinoprop-1-ynyl)-1-ethyl-N-(1-methyl-4-piperidyl)indole-5-carboxamide], the SC150 in data set [1] (setting [7]) is >150 µM. The same measure, in the same setting: the value for `CN1CCC(Nc2cccc3c2cc(C#CCNc2ccc(S(C)(=O)=O)cc2)n3CC(F)(F)F)CC1` [Compound 11, N-(1-methylpiperidin-4-yl)-2-(3-((4-(methylsulfonyl)phenyl)amino)prop-1-yn-1-yl)-1-(2,2,2-trifluoroethyl)-1H-indol-4-amine] was 0.027 µM. Same read-out and setting: the value for `CCn1c(C#CCNc2ccccc2)cc2cc(CNC3CCOCC3)ccc21` [Compound 3, N-((1-ethyl-2-(3-(phenylamino)prop-1-yn-1-yl)-1H-indol-5-yl)methyl)tetrahydro-2H-pyran-4-amine] was 26.5 µM.

As to `CCn1c2ccccc2c2cc(CNC)ccc21` [PhiKan83, reference compound], in data set [1] (setting [4]), the SC150 was determined as 37.2 µM. Regarding `CN1CCC(Nc2cccc3c2cc(C#CCNc2ccc(S(C)(=O)=O)cc2OC(F)(F)F)n3CC(F)(F)F)CC1` [Compound 14, N-(1-methyl-4-piperidyl)-2-[3-[4-methylsulfonyl-2-(trifluoromethoxy)anilino]prop-1-ynyl]-1-(2,2,2-trifluoroethyl)indol-4-amine], in data set [1] (setting [7]), the SC150 was found to be 0.030 µM. In the case of `CC(C)(C#N)c1ccc(NCC#Cc2cc3c(CNC4CCOCC4)cccc3n2CC(F)(F)F)cn1` [Compound 8, 2-methyl-2-(5-((3-(4-(((tetrahydro-2H-pyran-4-yl)amino)methyl)-1-(2,2,2-trifluoroethyl)-1H-indol-2-yl)prop-2-yn-1-yl)amino)pyridin-2-yl)propanenitrile], the SC150 in data set [1] (setting [7]) was 1.300 µM. Still for that read-out and setting: the value for `CC(C)(C#N)c1ccc(NCC#Cc2cc3cc(CNC4CCOCC4)ccc3n2CC(F)(F)F)cn1` [Compound 7, 2-methyl-2-(5-((3-(5-(((tetrahydro-2H-pyran-4-yl)amino)methyl)-1-(2,2,2-trifluoroethyl)-1H-indol-2-yl)prop-2-yn-1-yl)amino)pyridin-2-yl)propanenitrile] was 0.48 µM. For the molecule `COc1cc(C(=O)NC2CCN(C)CC2)ccc1NCC#Cc1cc2c(N[C@@H]3CCN(C)C[C@@H]3F)cccc2n1CC(F)(F)F` [Compound 31, 4-[3-[4-[[(3S,4R)-3-fluoro-1-methyl-4-piperidyl]amino]-1-(2,2,2-trifluoroethyl)indol-2-yl]prop-2-ynyl-amino]-3-methoxy-N-(1-methyl-4-piperidyl)benzamide], in data set [1] (setting [5]), the SC150 was determined as 0.005 µM. The same molecule showed a pIC50 in data set [2] (Table 3) of 5.93.

For the molecule `CCn1c(C#CCNc2ccc(C)nc2)cc2cc(CNC3CCOCC3)ccc21` [Compound 4, N-(3-(1-ethyl-5-(((tetrahydro-2H-pyran-4-yl)amino)methyl)-1H-indol-2-yl)prop-2-yn-1-yl)-6-methylpyridin-3-amine], the SC150 in data set [1] (setting [7]) turned out to be 6.3 µM.

Regarding `COc1cc(S(C)(=O)=O)ccc1NCC#Cc1cc2c(N[C@@H]3CCN(C)C[C@H]3F)cccc2n1CC(F)(F)F` (racemic) [Compound 19, Rac-N-[(3R,4R)-3-fluoro-1-methyl-4-piperidyl]-2-[3-(2-methoxy-4-methylsulfonyl-anilino)prop-1-ynyl]-1-(2,2,2-trifluoroethyl)indol-4-amine], the SC150 in data set [1] (setting [6]) came out at 0.02 µM. This molecule also had a pIC50 in data set [2] (Table 2) of 5.52.

The record behind these values is PMC11726359, “Discovery of Rezatapopt (PC14586), a First-in-Class, Small-Molecule Reactivator of p53 Y220C Mutant in Development” (ACS Medicinal Chemistry Letters, 2024).
